7 molecules from ChEMBL document CHEMBL1125108 (J Med Chem, 1990) can be followed below.

Molecules are shown by their SMILES. pIC50: −log10 of the molar value. Where only a bound is given, the exact number is not on record here.

What is called pIC50 is the negative decadic logarithm of the IC50, by convention in mol/L. Higher therefore signals a low IC50. A word on the IC50: it is the concentration that gives 50% inhibition. A high value points to lower potency.

Common to all, as to type: tissue-based
One assay has as its target D(2) dopamine receptor (Rattus norvegicus, UniProt P61169). The assay is described as follows: Binding affinity for Dopamine receptor D2 using [3H]spiperone in rat brain.
For assay [1], the target named is Muscarinic acetylcholine receptor. Kind of assay: Binding affinity was determined against Muscarinic acetylcholine receptor using [3H]QNB as radioligand in rat brain.
Another assay addresses D(1A) dopamine receptor (Rattus norvegicus, UniProt P18901). Kind of assay: Binding affinity against Dopamine receptor D1 using […] in rat brain.

D(2) dopamine receptor, sequence (P61169 whole entry): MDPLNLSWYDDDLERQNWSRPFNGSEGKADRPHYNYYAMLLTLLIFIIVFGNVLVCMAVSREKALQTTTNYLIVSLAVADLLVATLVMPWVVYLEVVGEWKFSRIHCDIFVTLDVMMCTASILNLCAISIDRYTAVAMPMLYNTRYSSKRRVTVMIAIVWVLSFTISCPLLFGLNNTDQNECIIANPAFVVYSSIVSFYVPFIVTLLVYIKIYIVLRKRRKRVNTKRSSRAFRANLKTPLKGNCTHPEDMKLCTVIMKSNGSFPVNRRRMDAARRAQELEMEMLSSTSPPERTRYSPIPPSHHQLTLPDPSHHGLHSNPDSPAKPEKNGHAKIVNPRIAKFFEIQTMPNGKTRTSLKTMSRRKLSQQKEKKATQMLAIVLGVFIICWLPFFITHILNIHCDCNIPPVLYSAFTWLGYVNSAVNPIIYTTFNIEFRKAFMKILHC
D(1A) dopamine receptor, sequence (P18901 whole entry): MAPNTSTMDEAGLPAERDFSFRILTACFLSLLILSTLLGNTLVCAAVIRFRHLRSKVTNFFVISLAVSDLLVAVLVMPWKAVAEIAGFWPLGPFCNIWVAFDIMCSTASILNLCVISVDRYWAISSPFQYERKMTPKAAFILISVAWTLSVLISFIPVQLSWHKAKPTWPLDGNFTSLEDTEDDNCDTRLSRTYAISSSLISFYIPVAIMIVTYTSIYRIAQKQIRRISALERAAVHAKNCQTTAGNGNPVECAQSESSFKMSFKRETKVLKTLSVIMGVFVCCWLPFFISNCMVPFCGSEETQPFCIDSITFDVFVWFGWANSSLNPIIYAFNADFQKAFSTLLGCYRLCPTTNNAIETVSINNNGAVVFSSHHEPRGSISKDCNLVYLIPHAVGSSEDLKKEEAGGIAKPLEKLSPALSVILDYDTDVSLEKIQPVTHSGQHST

For `CC(C)=C1c2ccc(Cl)cc2C=C(N2CCN(C)CC2)c2ccccc21`, the pIC50 on D(2) dopamine receptor is 5.30; on D(1A) dopamine receptor it was 6.35. The molecule also came in with an IC50 in assay [1] of 1750 nM.

For `C=C1c2ccc(Cl)cc2C=C(N2CCN(C)CC2)c2ccccc21`, the pIC50 on D(2) dopamine receptor is 6.52; at D(1A) dopamine receptor it was 7.29. Also, the IC50 in assay [1] stood at 248 nM.

For `C=C1c2ccccc2C=C(N2CCN(C)CC2)c2cc(Cl)ccc21`, the pIC50 is 7.57 on D(2) dopamine receptor and 8.10 at D(1A) dopamine receptor. In addition, in assay [1], the IC50 was determined as 330 nM.

Take `CC(C)=C1c2ccccc2C=C(N2CCN(C)CC2)c2cc(Cl)ccc21`: the pIC50 is below 5.00 on D(2) dopamine receptor and 6.88 on D(1A) dopamine receptor. Further, in assay [1], the IC50 was found to be 297 nM.

As for `CN1CCN(C2=Nc3ccccc3Nc3ccccc32)CC1`, the pIC50 at D(2) dopamine receptor is below 5.00.

For `CC(C)=C1c2ccccc2C=C(N2CCN(C)CC2)c2ccccc21`, the pIC50 is 5.32 at D(2) dopamine receptor and 6.27 on D(1A) dopamine receptor. The same molecule gave an IC50 in assay [1] of 415 nM.

For `C=C1c2ccccc2C=C(N2CCN(C)CC2)c2ccccc21`, the results for the pIC50 on D(2) dopamine receptor and at D(1A) dopamine receptor were 6.52 and 7.68, respectively. This molecule also displayed an IC50 in assay [1] of 150 nM.
